Experimental data: PubChem BioAssay (NCI)
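Exposure lasted 48 hours, with cells grown in 96-well plates and compounds tested at five concentrations. GI50 marks 50% less growth. Definition used: TGI = concentration required for complete inhibition of growth.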

System: OVCAR-3 ovarian
Experiment: NCI anticancer screen, dose series, 48 h

SMILES | GI50 | TGI
NC(N)=Nc1nc2ccccc2o1 | > 100 µM | > 100 µM
COc1cc(/C=C2\CCCCC3=C2N=C2SC(C)=CN2C3c2cc(OC)c(OC)c(OC)c2)cc(OC)c1OC (stereo not drawn) | 23.7 µM | > 100 µM

System: SN12C renal
Experiment: NCI anticancer screen, dose series, 48 h

SMILES | GI50 | TGI
COc1ccc(-c2c(C#N)c(N3CCOCC3)nc3[nH]c(=S)[nH]c(=S)c23)cc1OC | 21.7 µM | 91.3 µM
Cc1ccsc1/C=N/Nc1cnccn1 |  | > 100 µM
NC(N)=Nc1nc2ccccc2o1 | > 100 µM | > 100 µM
COc1cc(/C=C2\CCCCC3=C2N=C2SC(C)=CN2C3c2cc(OC)c(OC)c(OC)c2)cc(OC)c1OC (stereo not drawn) | 61.8 µM | > 100 µM

System: HOP-62 NSCLC
Experiment: NCI anticancer screen, dose series, 48 h

SMILES | GI50 | TGI
COc1ccc(-c2c(C#N)c(N3CCOCC3)nc3[nH]c(=S)[nH]c(=S)c23)cc1OC | 83.2 µM | > 100 µM
Cc1ccsc1/C=N/Nc1cnccn1 |  | > 100 µM
NC(N)=Nc1nc2ccccc2o1 | > 100 µM | > 100 µM
COc1cc(/C=C2\CCCCC3=C2N=C2SC(C)=CN2C3c2cc(OC)c(OC)c(OC)c2)cc(OC)c1OC (stereo not drawn) | 4.7 µM | > 100 µM

System: SF-268 CNS
Experiment: NCI anticancer screen, dose series, 48 h

SMILES | GI50 | TGI
COc1ccc(-c2c(C#N)c(N3CCOCC3)nc3[nH]c(=S)[nH]c(=S)c23)cc1OC | 31.6 µM | > 100 µM
Cc1ccsc1/C=N/Nc1cnccn1 |  | > 100 µM
NC(N)=Nc1nc2ccccc2o1 | > 100 µM | > 100 µM
COc1cc(/C=C2\CCCCC3=C2N=C2SC(C)=CN2C3c2cc(OC)c(OC)c(OC)c2)cc(OC)c1OC (stereo not drawn) | 36.7 µM | > 100 µM

System: COLO 205 colon
Experiment: NCI anticancer screen, dose series, 48 h

SMILES | GI50 | TGI
COc1ccc(-c2c(C#N)c(N3CCOCC3)nc3[nH]c(=S)[nH]c(=S)c23)cc1OC | 66.8 µM | > 100 µM
Cc1ccsc1/C=N/Nc1cnccn1 |  | > 100 µM
NC(N)=Nc1nc2ccccc2o1 | > 100 µM | > 100 µM
COc1cc(/C=C2\CCCCC3=C2N=C2SC(C)=CN2C3c2cc(OC)c(OC)c(OC)c2)cc(OC)c1OC (stereo not drawn) | 41.6 µM | > 100 µM

System: SF-539 CNS
Experiment: NCI anticancer screen, dose series, 48 h

SMILES | GI50 | TGI
COc1ccc(-c2c(C#N)c(N3CCOCC3)nc3[nH]c(=S)[nH]c(=S)c23)cc1OC | 39.1 µM | > 100 µM
NC(N)=Nc1nc2ccccc2o1 | > 100 µM | > 100 µM
COc1cc(/C=C2\CCCCC3=C2N=C2SC(C)=CN2C3c2cc(OC)c(OC)c(OC)c2)cc(OC)c1OC (stereo not drawn) | > 100 µM | > 100 µM

System: A549 NSCLC
Experiment: NCI anticancer screen, dose series, 48 h

SMILES | GI50 | TGI
COc1ccc(-c2c(C#N)c(N3CCOCC3)nc3[nH]c(=S)[nH]c(=S)c23)cc1OC | > 100 µM | > 100 µM
Cc1ccsc1/C=N/Nc1cnccn1 |  | > 100 µM
NC(N)=Nc1nc2ccccc2o1 | > 100 µM | > 100 µM
COc1cc(/C=C2\CCCCC3=C2N=C2SC(C)=CN2C3c2cc(OC)c(OC)c(OC)c2)cc(OC)c1OC (stereo not drawn) | 20.4 µM | > 100 µM

System: IGROV1 ovarian
Experiment: NCI anticancer screen, dose series, 48 h

SMILES | GI50 | TGI
COc1ccc(-c2c(C#N)c(N3CCOCC3)nc3[nH]c(=S)[nH]c(=S)c23)cc1OC | > 100 µM | > 100 µM
Cc1ccsc1/C=N/Nc1cnccn1 |  | > 100 µM
NC(N)=Nc1nc2ccccc2o1 | > 100 µM | > 100 µM
COc1cc(/C=C2\CCCCC3=C2N=C2SC(C)=CN2C3c2cc(OC)c(OC)c(OC)c2)cc(OC)c1OC (stereo not drawn) | 63.5 µM | > 100 µM

System: SK-MEL-2 melanoma
Experiment: NCI anticancer screen, dose series, 48 h

SMILES | GI50 | TGI
COc1ccc(-c2c(C#N)c(N3CCOCC3)nc3[nH]c(=S)[nH]c(=S)c23)cc1OC | > 100 µM | > 100 µM
Cc1ccsc1/C=N/Nc1cnccn1 |  | > 100 µM
NC(N)=Nc1nc2ccccc2o1 | > 100 µM | > 100 µM
COc1cc(/C=C2\CCCCC3=C2N=C2SC(C)=CN2C3c2cc(OC)c(OC)c(OC)c2)cc(OC)c1OC (stereo not drawn) | 9.91 µM | > 100 µM

System: OVCAR-5 ovarian
Experiment: NCI anticancer screen, dose series, 48 h

SMILES | GI50 | TGI
OC(c1cc2cc(Cl)ccc2c2cc(C(F)(F)F)ccc12)C1CCCCN1 (stereo not drawn) | 1.48 µM | 2.94 µM
COc1ccc(-c2c(C#N)c(N3CCOCC3)nc3[nH]c(=S)[nH]c(=S)c23)cc1OC | > 100 µM | > 100 µM
Cc1ccsc1/C=N/Nc1cnccn1 |  | > 100 µM
NC(N)=Nc1nc2ccccc2o1 | > 100 µM | > 100 µM
COc1cc(/C=C2\CCCCC3=C2N=C2SC(C)=CN2C3c2cc(OC)c(OC)c(OC)c2)cc(OC)c1OC (stereo not drawn) | > 100 µM | > 100 µM

System: OVCAR-4 ovarian
Experiment: NCI anticancer screen, dose series, 48 h

SMILES | GI50 | TGI
COc1ccc(-c2c(C#N)c(N3CCOCC3)nc3[nH]c(=S)[nH]c(=S)c23)cc1OC | 76.6 µM | > 100 µM
Cc1ccsc1/C=N/Nc1cnccn1 |  | > 100 µM
NC(N)=Nc1nc2ccccc2o1 | > 100 µM | > 100 µM
COc1cc(/C=C2\CCCCC3=C2N=C2SC(C)=CN2C3c2cc(OC)c(OC)c(OC)c2)cc(OC)c1OC (stereo not drawn) | 12.3 µM | > 100 µM

System: KM12 colon
Experiment: NCI anticancer screen, dose series, 48 h

SMILES | GI50 | TGI
COc1ccc(-c2c(C#N)c(N3CCOCC3)nc3[nH]c(=S)[nH]c(=S)c23)cc1OC | 29.1 µM | > 100 µM
Cc1ccsc1/C=N/Nc1cnccn1 |  | > 100 µM
NC(N)=Nc1nc2ccccc2o1 | > 100 µM | > 100 µM
COc1cc(/C=C2\CCCCC3=C2N=C2SC(C)=CN2C3c2cc(OC)c(OC)c(OC)c2)cc(OC)c1OC (stereo not drawn) | 36.8 µM | > 100 µM

System: UACC-62 melanoma
Experiment: NCI anticancer screen, dose series, 48 h

SMILES | GI50 | TGI
COc1ccc(-c2c(C#N)c(N3CCOCC3)nc3[nH]c(=S)[nH]c(=S)c23)cc1OC | 20.1 µM | 76.1 µM
Cc1ccsc1/C=N/Nc1cnccn1 |  | > 100 µM
NC(N)=Nc1nc2ccccc2o1 | > 100 µM | > 100 µM
COc1cc(/C=C2\CCCCC3=C2N=C2SC(C)=CN2C3c2cc(OC)c(OC)c(OC)c2)cc(OC)c1OC (stereo not drawn) | 3.26 µM | > 100 µM

System: RXF 393 renal
Experiment: NCI anticancer screen, dose series, 48 h

SMILES | GI50 | TGI
COc1ccc(-c2c(C#N)c(N3CCOCC3)nc3[nH]c(=S)[nH]c(=S)c23)cc1OC | 62.6 µM | > 100 µM
Cc1ccsc1/C=N/Nc1cnccn1 |  | > 100 µM
NC(N)=Nc1nc2ccccc2o1 | > 100 µM | > 100 µM
COc1cc(/C=C2\CCCCC3=C2N=C2SC(C)=CN2C3c2cc(OC)c(OC)c(OC)c2)cc(OC)c1OC (stereo not drawn) | 3.06 µM | > 100 µM

System: SR leukemia
Experiment: NCI anticancer screen, dose series, 48 h

SMILES | GI50 | TGI
COc1ccc(-c2c(C#N)c(N3CCOCC3)nc3[nH]c(=S)[nH]c(=S)c23)cc1OC | 11.5 µM | > 100 µM
